Assay: in vitro dissolution testing in simulated gastric fluids, Type 1 USP dissolution apparatus
Type: physicochemical
Conditions: coated trilayer tablet of the Example, 0.01 N hydrochloric acid, 100 rpm, 37° C.
Protocol: The coated tablets were subjected to in vitro dissolution testing in simulated gastric fluids (0.01 N hydrochloric acid) at 100 rpm and 37° C. using Type 1 USP dissolution apparatus. [table]

Compound: C[C@@](Cc1ccc(O)c(O)c1)(NN)C(=O)O [Carbidopa]
- % released (0 hours): 0%
- % released (1 hour): 22%
- % released (2 hours): 31%
- % released (4 hours): 52%
- % released (6 hours): 76%
- % released (8 hours): 86%

Compound: N[C@@H](Cc1ccc(O)c(O)c1)C(=O)O [levodopa]
- % released (0 hours): 0%
- % released (1 hour): 24%
- % released (2 hours): 33%
- % released (4 hours): 57%
- % released (6 hours): 82%
- % released (8 hours): 95%

Source: patent publication US8187633B2, “Controlled release coated tablets having prolonged gastric retention” (Sun Pharma Advanced Research Company Limited, priority 2005, dated 2012)
